In PubChem BioAssay AID248 (DTP/NCI, 2004):
Several values for one entry are separate records, joined by “and”; a condition that tells them apart may be missing. Equal entries are not always repeated. Inconclusive results and toxic doses are left out. No stated cut-off is given here; in the data, active means T/C of 150% or more; inactive means T/C below 125%.

Tested on: L1210 leukemia ip in BDF1 mice, survival T/C
Experiment: NCI In Vivo Anticancer Drug Screen. Data for tumor model L1210 Leukemia (intraperitoneal) in B6D2F1 (BDF1) mice
Settings: endpoint: mean survival time, higher = longer survival
Procedure, shortened: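 Transplanted-tumor mice were given test agent; controls received vehicle only. Survival readings from the two groups were divided (treated over control).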

[1] = dose: 100.0 mg/kg/injection, schedule: Q01DX001 (ip), vehicle: carboxymethylcellulose (CMC)
[2] = dose: 100.0 mg/kg/injection, schedule: Q01DX001 (ip), vehicle: saline
[3] = dose: 100.0 mg/kg/injection, schedule: Q01DX009 (ip), vehicle: saline
[4] = dose: 100.0 mg/kg/injection, schedule: Q04DX002 (ip), vehicle: Klucel (hydroxypropylcellulose) (HPC)
[5] = dose: 200.0 mg/kg/injection, schedule: Q01DX001 (ip), vehicle: carboxymethylcellulose (CMC)
[6] = dose: 200.0 mg/kg/injection, schedule: Q01DX001 (ip), vehicle: saline
[7] = dose: 200.0 mg/kg/injection, schedule: Q01DX009 (ip), vehicle: saline
[8] = dose: 200.0 mg/kg/injection, schedule: Q04DX002 (ip), vehicle: Klucel (hydroxypropylcellulose) (HPC)
[9] = dose: 400.0 mg/kg/injection, schedule: Q01DX001 (ip), vehicle: carboxymethylcellulose (CMC)
[10] = dose: 400.0 mg/kg/injection, schedule: Q01DX001 (ip), vehicle: saline
[11] = dose: 400.0 mg/kg/injection, schedule: Q01DX009 (ip), vehicle: saline
[12] = dose: 400.0 mg/kg/injection, schedule: Q04DX002 (ip), vehicle: Klucel (hydroxypropylcellulose) (HPC)
[13] = dose: 50.0 mg/kg/injection, schedule: Q01DX009 (ip), vehicle: Klucel (hydroxypropylcellulose) (HPC)
[14] = dose: 100.0 mg/kg/injection, schedule: Q04DX003 (ip), vehicle: carboxymethylcellulose (CMC)
[15] = dose: 200.0 mg/kg/injection, schedule: Q04DX003 (ip), vehicle: carboxymethylcellulose (CMC)
[16] = dose: 400.0 mg/kg/injection, schedule: Q04DX003 (ip), vehicle: carboxymethylcellulose (CMC)

Measured: T/C

NC(CC(=O)O)C(=O)O (stereo unspecified)
inactive: [1] 94 % of control | [2] 102 % of control and 95 % of control | [3] 97 % of control | [4] 98 % of control | [5] 89 % of control | [6] 96 % of control and 93 % of control | [7] 100 % of control | [8] 98 % of control | [9] 92 % of control | [10] 102 % of control and 90 % of control | [11] 97 % of control | dose: 400.0 mg/kg/injection, schedule: Q01DX030 (sc), vehicle: other 97 % of control | [12] 95 % of control | dose: 800.0 mg/kg/injection, schedule: Q01DX030 (sc), vehicle: other 96 % of control

CCCC(=O)Nc1ccn(C2OC(COC(=O)CCC)C(OC(=O)CCC)C2OC(=O)CCC)c(=O)n1 (stereo unspecified)
inactive: dose: 177.0 mg/kg/injection, schedule: Q01DX001 (ip), vehicle: carboxymethylcellulose (CMC) 101 % of control | dose: 266.0 mg/kg/injection, schedule: Q01DX001 (ip), vehicle: carboxymethylcellulose (CMC) 116 % of control | [9] 117 % of control

CCCCC(=O)N/N=C\c1cccc2ccccc12
inactive: [1] 86 % of control | [5] 88 % of control | [9] 96 % of control

COc1ccc(-c2cc(=O)c3c(O)cc(O)c(-c4cc(-c5cc(=O)c6c(O)cc(OC)cc6o5)ccc4OC)c3o2)cc1
inactive: dose: 55.0 mg/kg/injection, schedule: Q01DX Z (ip), vehicle: methylcellulose (MC) 98 % of control | dose: 83.0 mg/kg/injection, schedule: Q01DX Z (ip), vehicle: methylcellulose (MC) 92 % of control | dose: 125.0 mg/kg/injection, schedule: Q01DX Z (ip), vehicle: methylcellulose (MC) 93 % of control

CC1(C)N=C(N)N=C(N)N1c1cccc(OCCOc2ccccc2[N+](=O)[O-])c1
inactive: dose: 10.0 mg/kg/injection, schedule: Q01DX001 (ip), vehicle: Klucel (hydroxypropylcellulose) (HPC) 108 % of control | dose: 10.0 mg/kg/injection, schedule: Q01DX009 (ip), vehicle: Klucel (hydroxypropylcellulose) (HPC) 98 % of control and 101 % of control | dose: 10.0 mg/kg/injection, schedule: Q04DX002 (ip), vehicle: Klucel (hydroxypropylcellulose) (HPC) 94 % of control and 90 % of control | dose: 10.0 mg/kg/injection, schedule: Q04DX003 (ip), vehicle: Klucel (hydroxypropylcellulose) (HPC) 96 % of control | dose: 20.0 mg/kg/injection, schedule: Q01DX001 (ip), vehicle: Klucel (hydroxypropylcellulose) (HPC) 104 % of control | dose: 20.0 mg/kg/injection, schedule: Q01DX009 (ip), vehicle: Klucel (hydroxypropylcellulose) (HPC) 102 % of control and 108 % of control | dose: 20.0 mg/kg/injection, schedule: Q04DX002 (ip), vehicle: Klucel (hydroxypropylcellulose) (HPC) 101 % of control and 120 % of control | dose: 20.0 mg/kg/injection, schedule: Q04DX003 (ip), vehicle: Klucel (hydroxypropylcellulose) (HPC) 100 % of control | dose: 40.0 mg/kg/injection, schedule: Q01DX001 (ip), vehicle: Klucel (hydroxypropylcellulose) (HPC) 101 % of control | dose: 40.0 mg/kg/injection, schedule: Q01DX009 (ip), vehicle: Klucel (hydroxypropylcellulose) (HPC) 104 % of control and 108 % of control | dose: 40.0 mg/kg/injection, schedule: Q04DX002 (ip), vehicle: Klucel (hydroxypropylcellulose) (HPC) 94 % of control and 90 % of control | dose: 40.0 mg/kg/injection, schedule: Q04DX003 (ip), vehicle: Klucel (hydroxypropylcellulose) (HPC) 102 % of control

COc1ccc(C=O)cc1OCCOc1cc(C=O)ccc1OC
inactive: [13] 91 % of control | dose: 100.0 mg/kg/injection, schedule: Q01DX009 (ip), vehicle: Klucel (hydroxypropylcellulose) (HPC) 108 % of control | dose: 200.0 mg/kg/injection, schedule: Q01DX009 (ip), vehicle: Klucel (hydroxypropylcellulose) (HPC) 94 % of control

CC(=O)CC(=O)C(F)(F)F.CC(=O)CC(=O)C(F)(F)F.CC(=O)CC(=O)C(F)(F)F.[Ru]
inactive: [1] 96 % of control | [5] 94 % of control | [9] 88 % of control

C[N+](C)(C)CCS(=O)(=O)[O-]
inactive: [3] 90 % of control | [7] 95 % of control | [11] 95 % of control

CC(=O)Nc1ccc(S(=O)(=O)C(Cl)c2ccccc2)cc1 (stereo unspecified)
inactive: [2] 103 % of control | [6] 103 % of control | [10] 98 % of control

CCc1cc2oc(C)c(C)c2c(N=Nc2ccccc2OC)c1O
inactive: [4] 105 % of control | [8] 102 % of control | [12] 102 % of control

O=[N+]([O-])c1ccc(Cl)c(O)c1
inactive: dose: 25.0 mg/kg/injection, schedule: Q01DX009 (ip), vehicle: carboxymethylcellulose (CMC) 108 % of control | dose: 50.0 mg/kg/injection, schedule: Q01DX009 (ip), vehicle: carboxymethylcellulose (CMC) 106 % of control | dose: 100.0 mg/kg/injection, schedule: Q01DX009 (ip), vehicle: carboxymethylcellulose (CMC) 97 % of control

Cc1c(C(C)(C)C)cc(C(C)(C)C)c(O)c1[N+](=O)[O-]
inactive: [1] 93 % of control and 95 % of control | dose: 100.0 mg/kg/injection, schedule: Q04DX002 (ip), vehicle: carboxymethylcellulose (CMC) 90 % of control and 91 % of control | [14] 97 % of control and 98 % of control | [5] 95 % of control and 99 % of control and 111 % of control | dose: 200.0 mg/kg/injection, schedule: Q04DX002 (ip), vehicle: carboxymethylcellulose (CMC) 87 % of control and 89 % of control | [15] 96 % of control and 90 % of control | [9] 94 % of control and 101 % of control and 105 % of control | dose: 400.0 mg/kg/injection, schedule: Q04DX002 (ip), vehicle: carboxymethylcellulose (CMC) 96 % of control and 111 % of control | [16] 96 % of control and 87 % of control

CCN(C(=O)c1ccc(C(=O)N(CC)c2ccccc2)cc1)c1ccccc1
inactive: dose: 100.0 mg/kg/injection, schedule: Q04DX003 (ip), vehicle: saline with Tween-80 96 % of control | dose: 200.0 mg/kg/injection, schedule: Q04DX003 (ip), vehicle: saline with Tween-80 91 % of control | dose: 400.0 mg/kg/injection, schedule: Q04DX003 (ip), vehicle: saline with Tween-80 91 % of control

C=CCNC(=O)Nc1ncc([N+](=O)[O-])s1
inactive: dose: 25.0 mg/kg/injection, schedule: Q01DX009 (ip), vehicle: Klucel (hydroxypropylcellulose) (HPC) 90 % of control | dose: 25.0 mg/kg/injection, schedule: Q04DX002 (ip), vehicle: Klucel (hydroxypropylcellulose) (HPC) 101 % of control | [13] 111 % of control | dose: 50.0 mg/kg/injection, schedule: Q04DX002 (ip), vehicle: Klucel (hydroxypropylcellulose) (HPC) 93 % of control | [4] 93 % of control

Nc1cccnc1Cl
inactive: dose: 100.0 mg/kg/injection, schedule: Q01DX009 (ip), vehicle: alcohol 100 % of control | dose: 100.0 mg/kg/injection, schedule: Q04DX003 (ip), vehicle: other 92 % of control | dose: 200.0 mg/kg/injection, schedule: Q01DX009 (ip), vehicle: alcohol 96 % of control | dose: 200.0 mg/kg/injection, schedule: Q04DX003 (ip), vehicle: other 90 % of control | dose: 400.0 mg/kg/injection, schedule: Q01DX009 (ip), vehicle: alcohol 96 % of control | dose: 400.0 mg/kg/injection, schedule: Q04DX003 (ip), vehicle: other 93 % of control

O=C1c2cccc3cc([N+](=O)[O-])cc(c23)C(=O)N1Cc1cccnc1
inactive: [14] 93 % of control | [15] 90 % of control | [16] 97 % of control

O=NN(Cc1ccccc1)NC(=O)c1ccccc1
inactive: dose: 100.0 mg/kg/injection, schedule: Q04DX002 (ip), vehicle: gum acacia 96 % of control | dose: 200.0 mg/kg/injection, schedule: Q04DX002 (ip), vehicle: gum acacia 104 % of control
